From ChEMBL document CHEMBL1201862, “PubChem BioAssay data set” (2004)
Calls of active or inactive are those of the source.

Experiments:
[1] = target: Induced myeloid leukemia cell differentiation protein Mcl-1 (Homo sapiens, UniProt Q07820); experiment: blockers of MCL1 binding to BIM peptide – biochemical, fluorescence polarization, BIM-BH3 peptide, 1536-well, dose response (AID 2217)
Genome polyprotein = Genome polyprotein (Hepatitis C virus, UniProt Q2Q167); experiment: disruption of hepatitis C core self-association – biochemical, TR-FRET, dose response (AID 2159); design: species or system Hepacivirus hominis;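 also: blocks dimerization of HCV core protein measured by TR-FRET between tagged core106 pairs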
Bcl-2-like protein 1 = Bcl-2-like protein 1 (Homo sapiens, UniProt Q07817); experiment: blockers of BCLXL peptide binding – biochemical, fluorescence polarization, 1536-well, selectivity assay for MCL1 inhibitor project, dose response (AID 2218)
[2] = decrease of insulin promoter-GFP reporter – imaging, high-content screening, mouse beta cells (AID 1628); format: functional; details: MIN6
[3] = MIN6 cell viability loss – mouse insulinoma, cytotoxicity control, dose response (AID 2122); format: functional;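 also: confirmatory high-throughput counterscreen run to flag cytotoxic compounds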
NADPH oxidase 1 [4] = target: T1, NADPH oxidase 1 (Homo sapiens, UniProt Q9Y5S8); format: functional, cell-based
T1 sequence (Q9Y5S8 whole entry): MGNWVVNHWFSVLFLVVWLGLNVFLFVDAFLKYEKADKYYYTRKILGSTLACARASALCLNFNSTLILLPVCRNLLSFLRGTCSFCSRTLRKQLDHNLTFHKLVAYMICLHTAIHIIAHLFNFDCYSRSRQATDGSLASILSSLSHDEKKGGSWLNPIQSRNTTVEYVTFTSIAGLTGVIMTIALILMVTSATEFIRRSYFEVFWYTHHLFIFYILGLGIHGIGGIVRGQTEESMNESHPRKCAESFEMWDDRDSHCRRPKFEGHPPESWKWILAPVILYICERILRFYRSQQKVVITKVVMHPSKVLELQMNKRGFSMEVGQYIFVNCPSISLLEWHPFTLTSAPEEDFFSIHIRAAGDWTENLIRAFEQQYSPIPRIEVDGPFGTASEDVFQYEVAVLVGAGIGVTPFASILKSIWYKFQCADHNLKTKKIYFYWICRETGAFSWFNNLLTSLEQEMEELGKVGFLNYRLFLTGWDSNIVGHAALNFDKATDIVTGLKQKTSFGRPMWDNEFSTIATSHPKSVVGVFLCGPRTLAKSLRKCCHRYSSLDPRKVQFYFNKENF

[5] = target: T2, Rac GTPase-activating protein 1 (Homo sapiens, UniProt Q9H0H5); experiment: blockers of MgcRacGAP-driven Rac1 GTP hydrolysis – biochemical, ADP Hunter fluorescence, primary and confirmatory, confirmation (AID 624330); format: functional
T2 sequence (Q9H0H5 whole entry): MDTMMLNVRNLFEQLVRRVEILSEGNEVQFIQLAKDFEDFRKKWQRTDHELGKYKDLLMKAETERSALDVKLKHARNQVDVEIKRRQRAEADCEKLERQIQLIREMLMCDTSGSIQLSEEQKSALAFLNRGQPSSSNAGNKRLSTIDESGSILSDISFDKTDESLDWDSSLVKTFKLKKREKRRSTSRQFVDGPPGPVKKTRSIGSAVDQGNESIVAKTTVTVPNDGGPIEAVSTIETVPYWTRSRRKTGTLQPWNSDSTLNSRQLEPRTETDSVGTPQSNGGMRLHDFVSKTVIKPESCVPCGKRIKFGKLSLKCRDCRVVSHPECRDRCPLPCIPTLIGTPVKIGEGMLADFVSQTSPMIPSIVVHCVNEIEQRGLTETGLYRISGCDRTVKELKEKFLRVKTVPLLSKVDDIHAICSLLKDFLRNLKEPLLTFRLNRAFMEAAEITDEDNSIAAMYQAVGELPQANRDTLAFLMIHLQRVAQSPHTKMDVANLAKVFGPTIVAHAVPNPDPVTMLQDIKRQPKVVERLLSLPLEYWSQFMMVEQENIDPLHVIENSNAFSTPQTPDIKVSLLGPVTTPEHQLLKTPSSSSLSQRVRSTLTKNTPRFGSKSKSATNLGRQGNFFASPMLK

NADPH oxidase 1 [6] = target: T1, NADPH oxidase 1; experiment: Luminescence-based cell-based dose response assay to identify inhibitors of NADPH oxidase 1 (NOX1).; format: functional
[7] = target: Sphingosine 1-phosphate receptor 2 (Homo sapiens, UniProt O95136); experiment: Dose Response Cell Based Assay for Agonists of the S1P2 Receptor of Purchased Analogues. [Related pubchem assays: 729, 843, 854, 736 ]; format: functional
[8] = loss of viability in HepG2 cells – cell-based, CellTiter-Glo, cherry-picked, cytotoxicity control for Shn3 inhibitor project, dose response (AID 624134); format: functional
[9] = non-specific 3'UTR reporter inhibition in Clone20-Shn3RL – cell-based, Renilla luciferase, cherry-picked, counter-screen for Shn3 inhibitor project, dose response (AID 624133); format: functional
Galanin receptor type 2 = Galanin receptor type 2 (Homo sapiens, UniProt O43603); experiment: Dose Response cell-based high-throughput screening assay to identify antagonists of galanin receptor 2 (GALR2). [Related pubchem assays: 828, 866 ]; format: functional
[10] = target: T3, COUP transcription factor 2 (Homo sapiens, UniProt P24468); experiment: Luminescence-based cell-based high throughput dose response assay to identify inhibitors of COUP-TFII (NR2F2).; format: functional;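 also: HEK293 cells transiently cotransfected with COUP-TFII expression vector and reporter; luciferase reporter luminescence driven by COUP-TFII from the pX2-168 reporter plasmid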
T3 sequence (P24468 whole entry): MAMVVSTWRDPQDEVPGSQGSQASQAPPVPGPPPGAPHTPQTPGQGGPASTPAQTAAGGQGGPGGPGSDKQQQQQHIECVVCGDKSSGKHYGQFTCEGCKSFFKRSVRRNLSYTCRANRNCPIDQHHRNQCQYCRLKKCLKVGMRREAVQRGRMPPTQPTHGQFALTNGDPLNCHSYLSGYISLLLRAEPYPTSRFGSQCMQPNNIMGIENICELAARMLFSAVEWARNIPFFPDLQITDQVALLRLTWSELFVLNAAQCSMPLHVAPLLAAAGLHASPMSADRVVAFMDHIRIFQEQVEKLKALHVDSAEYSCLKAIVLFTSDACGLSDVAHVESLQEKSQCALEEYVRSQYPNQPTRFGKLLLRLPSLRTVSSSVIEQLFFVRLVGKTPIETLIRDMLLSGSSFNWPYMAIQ

[11] = reduction of Shn3 3'UTR-driven luciferase in osteoblasts – cell-based, Clone20 osteoblasts, firefly luciferase, cherry-picked, dose response (AID 624132); format: functional;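 also: firefly luciferase luminescence from reporter carrying the Shn3 3'UTR in osteoblasts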
INS1 = experiment: INS-1E survival protection against cytokine death – cell-based, luminescence, retest, dose response (AID 449756); format: functional; details: Rattus norvegicus;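 also: cell death triggered by IL-1 beta plus TNF-alpha plus IFN-gamma mixture; protective hits raise ATP signal compared with cytokine alone wells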
Aminopeptidase N = target: T4, Aminopeptidase N (Plasmodium falciparum FcB1/Columbia, UniProt O96935); experiment: malaria alanyl aminopeptidase activity blockers – biochemical, fluorogenic H-Leu-NHMec substrate, 1536-well (AID 1445); design: species or system Plasmodium falciparum 3D7, 3D7
T4 sequence (O96935 whole entry): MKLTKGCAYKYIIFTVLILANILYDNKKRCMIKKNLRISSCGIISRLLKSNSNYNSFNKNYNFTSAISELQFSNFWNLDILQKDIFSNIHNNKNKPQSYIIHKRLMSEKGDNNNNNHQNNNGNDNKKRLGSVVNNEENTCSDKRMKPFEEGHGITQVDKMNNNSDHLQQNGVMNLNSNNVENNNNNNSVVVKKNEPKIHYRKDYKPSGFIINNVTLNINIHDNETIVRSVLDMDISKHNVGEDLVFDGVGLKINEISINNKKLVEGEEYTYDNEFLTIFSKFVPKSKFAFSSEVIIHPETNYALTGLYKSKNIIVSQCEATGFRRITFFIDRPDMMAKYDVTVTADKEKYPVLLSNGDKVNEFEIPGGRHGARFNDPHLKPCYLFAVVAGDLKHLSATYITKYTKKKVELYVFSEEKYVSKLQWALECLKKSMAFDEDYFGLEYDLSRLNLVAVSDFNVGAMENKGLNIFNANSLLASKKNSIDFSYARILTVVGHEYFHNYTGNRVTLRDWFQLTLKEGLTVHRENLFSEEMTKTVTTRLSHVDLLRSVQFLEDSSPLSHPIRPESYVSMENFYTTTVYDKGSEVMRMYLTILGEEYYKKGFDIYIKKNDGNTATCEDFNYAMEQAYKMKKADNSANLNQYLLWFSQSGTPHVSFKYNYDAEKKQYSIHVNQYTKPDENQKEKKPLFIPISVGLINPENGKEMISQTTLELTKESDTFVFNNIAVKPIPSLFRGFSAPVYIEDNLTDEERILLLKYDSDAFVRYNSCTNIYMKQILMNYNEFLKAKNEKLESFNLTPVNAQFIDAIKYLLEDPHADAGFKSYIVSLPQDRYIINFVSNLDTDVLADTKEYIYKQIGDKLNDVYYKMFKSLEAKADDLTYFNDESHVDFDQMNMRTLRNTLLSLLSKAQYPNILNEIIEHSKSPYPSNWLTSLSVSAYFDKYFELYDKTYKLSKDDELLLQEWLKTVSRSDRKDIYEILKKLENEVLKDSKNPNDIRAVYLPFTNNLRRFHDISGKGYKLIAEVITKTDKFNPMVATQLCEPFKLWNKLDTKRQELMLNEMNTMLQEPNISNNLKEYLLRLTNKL

Procathepsin L = Procathepsin L (Homo sapiens, UniProt P07711); experiment: CTSL1 protease inhibition – biochemical, QFRET, 1536-well, counter-screen for M1/M17 aminopeptidase inhibitor project, dose response (AID 2214)
[12] = target: T5, Zinc finger protein mex-5 (Caenorhabditis elegans, UniProt Q9XUB2); experiment: potency of MEX-5 RNA-binding blockers – biochemical, C. elegans, fluorescence polarization, dose response (AID 1960)
T5 sequence (Q9XUB2 whole entry): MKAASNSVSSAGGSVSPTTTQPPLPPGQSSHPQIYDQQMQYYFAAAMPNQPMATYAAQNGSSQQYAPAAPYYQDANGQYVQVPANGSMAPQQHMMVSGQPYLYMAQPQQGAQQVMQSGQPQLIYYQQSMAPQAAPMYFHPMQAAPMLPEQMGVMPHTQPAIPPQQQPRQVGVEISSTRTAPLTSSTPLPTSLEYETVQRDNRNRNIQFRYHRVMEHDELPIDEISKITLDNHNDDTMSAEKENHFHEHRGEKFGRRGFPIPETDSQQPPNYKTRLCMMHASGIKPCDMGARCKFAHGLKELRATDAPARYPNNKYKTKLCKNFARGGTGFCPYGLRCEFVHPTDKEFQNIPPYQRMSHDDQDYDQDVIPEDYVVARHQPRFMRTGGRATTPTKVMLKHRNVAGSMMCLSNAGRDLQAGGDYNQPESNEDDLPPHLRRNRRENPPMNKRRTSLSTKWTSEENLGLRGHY

Aspartyl aminopeptidase = Aspartyl aminopeptidase (Plasmodium falciparum 3D7, UniProt Q8I2J3); experiment: Counterscreen for inhibitors of M1 and M17 aminopeptidases: QFRET-based biochemical high throughput dose response assay for inhibitors of the Plasmodium falciparum M18 Aspartyl Aminopeptidase (PFM18AAP). [Related PubChem assays: 1619 (Screening assay (M17LAP inhibitors).), 1445 (Screening assay (M1AAP inhibitors).)]
[13] = target: T6, RNA-binding protein pos-1 (Caenorhabditis elegans, UniProt G5EF15); experiment: disruptors of C. elegans POS-1 RNA interaction – biochemical, fluorescence polarization, dose response (AID 1964);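 also: purified POS-1 fused to maltose binding protein made in E. coli; potency of compounds blocking POS-1 binding to fluorescent RNA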
T6 sequence (G5EF15 whole entry): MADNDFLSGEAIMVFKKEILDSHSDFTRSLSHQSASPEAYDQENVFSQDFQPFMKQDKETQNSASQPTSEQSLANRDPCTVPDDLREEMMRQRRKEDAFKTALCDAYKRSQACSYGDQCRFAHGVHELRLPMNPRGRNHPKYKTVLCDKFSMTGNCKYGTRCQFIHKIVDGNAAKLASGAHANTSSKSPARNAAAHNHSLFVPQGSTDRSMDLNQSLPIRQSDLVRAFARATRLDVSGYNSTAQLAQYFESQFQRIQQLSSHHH

[14] = NIH-3T3 fibroblast cytotoxicity, dose response, cytotoxicity control, cell-based, fluorescence, Alamar Blue, secondary assay (AID 2327); format: functional;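 also: NIH-3T3 mouse fibroblasts cultured with fluconazole at 8 µg/mL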
[15] = Vero E6 cell cytotoxicity, dose response, cytotoxicity control for non-replicating M. tuberculosis project, secondary assay (AID 492998); format: functional, VeroE6; details: Vero C1008
[16] = THP-1 cell cytotoxicity, dose response, cytotoxicity control for non-replicating M. tuberculosis project (AID 489025); format: functional
Vero = experiment: mammalian cell viability reduction – secondary assay, cytotoxicity control for West Nile virus antiviral project, dose response (AID 1650); format: functional; details: Chlorocebus sabaeus
cells [17] = format: functional, cell-based
[18] = HepG2 cell cytotoxicity, dose response, cytotoxicity control for non-replicating M. tuberculosis project (AID 489018); format: functional; details: Mycobacterium tuberculosis
cells [19] = format: functional, cell-based; remark: listed apart in the source
[20] = fluconazole-exposed Candida albicans growth modulators – fluorescence, retest, confirmation (AID 2467); format: functional, cell-based
cells [21] = format: functional

Procathepsin L, sequence (P07711 whole entry): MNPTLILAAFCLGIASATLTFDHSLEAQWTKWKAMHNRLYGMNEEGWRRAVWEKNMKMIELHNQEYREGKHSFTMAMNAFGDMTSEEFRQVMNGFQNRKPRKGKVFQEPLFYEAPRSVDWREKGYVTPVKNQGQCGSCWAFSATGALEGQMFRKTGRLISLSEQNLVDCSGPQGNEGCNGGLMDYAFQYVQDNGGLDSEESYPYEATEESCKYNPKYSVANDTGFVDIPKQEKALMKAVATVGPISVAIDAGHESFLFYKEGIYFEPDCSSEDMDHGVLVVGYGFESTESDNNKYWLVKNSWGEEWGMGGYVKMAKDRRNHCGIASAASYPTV
Bcl-2-like protein 1, sequence (Q07817 whole entry): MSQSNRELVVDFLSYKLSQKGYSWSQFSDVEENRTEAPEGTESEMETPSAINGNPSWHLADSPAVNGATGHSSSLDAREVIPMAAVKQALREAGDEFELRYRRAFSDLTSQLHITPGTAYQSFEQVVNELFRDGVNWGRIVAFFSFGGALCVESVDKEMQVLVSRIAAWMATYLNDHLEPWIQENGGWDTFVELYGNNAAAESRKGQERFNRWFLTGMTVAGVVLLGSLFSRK
Induced myeloid leukemia cell differentiation protein Mcl-1, sequence (Q07820 whole entry): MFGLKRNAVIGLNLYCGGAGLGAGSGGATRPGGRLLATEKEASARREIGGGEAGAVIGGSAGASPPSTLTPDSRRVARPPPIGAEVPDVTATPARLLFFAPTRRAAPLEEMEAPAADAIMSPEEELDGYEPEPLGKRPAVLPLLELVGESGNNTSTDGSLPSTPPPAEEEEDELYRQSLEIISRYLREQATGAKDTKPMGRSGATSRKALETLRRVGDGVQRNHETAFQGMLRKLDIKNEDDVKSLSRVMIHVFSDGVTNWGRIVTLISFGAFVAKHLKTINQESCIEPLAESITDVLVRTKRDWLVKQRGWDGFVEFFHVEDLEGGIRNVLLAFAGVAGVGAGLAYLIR
Sphingosine 1-phosphate receptor 2, sequence (O95136 whole entry): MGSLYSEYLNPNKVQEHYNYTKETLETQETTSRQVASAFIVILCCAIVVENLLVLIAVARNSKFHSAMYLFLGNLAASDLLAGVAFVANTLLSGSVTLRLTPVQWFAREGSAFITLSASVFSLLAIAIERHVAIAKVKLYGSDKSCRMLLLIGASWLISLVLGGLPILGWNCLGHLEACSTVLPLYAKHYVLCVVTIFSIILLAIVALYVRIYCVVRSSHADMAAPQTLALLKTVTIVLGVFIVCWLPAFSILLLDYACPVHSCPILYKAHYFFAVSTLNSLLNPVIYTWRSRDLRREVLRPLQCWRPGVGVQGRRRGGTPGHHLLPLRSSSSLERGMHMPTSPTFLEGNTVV
Galanin receptor type 2, sequence (O43603 whole entry): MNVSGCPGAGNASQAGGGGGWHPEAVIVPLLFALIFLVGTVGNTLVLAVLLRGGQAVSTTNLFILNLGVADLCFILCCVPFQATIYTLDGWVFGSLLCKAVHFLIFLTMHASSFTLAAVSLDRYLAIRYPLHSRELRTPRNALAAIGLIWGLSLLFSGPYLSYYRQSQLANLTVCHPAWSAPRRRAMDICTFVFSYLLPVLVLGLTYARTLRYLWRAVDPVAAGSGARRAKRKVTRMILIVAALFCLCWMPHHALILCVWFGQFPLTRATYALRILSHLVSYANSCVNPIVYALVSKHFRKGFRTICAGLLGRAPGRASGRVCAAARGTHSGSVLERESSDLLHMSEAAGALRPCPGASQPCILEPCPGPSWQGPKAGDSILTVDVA
Aspartyl aminopeptidase, sequence (Q8I2J3 whole entry, the tested form may be a part): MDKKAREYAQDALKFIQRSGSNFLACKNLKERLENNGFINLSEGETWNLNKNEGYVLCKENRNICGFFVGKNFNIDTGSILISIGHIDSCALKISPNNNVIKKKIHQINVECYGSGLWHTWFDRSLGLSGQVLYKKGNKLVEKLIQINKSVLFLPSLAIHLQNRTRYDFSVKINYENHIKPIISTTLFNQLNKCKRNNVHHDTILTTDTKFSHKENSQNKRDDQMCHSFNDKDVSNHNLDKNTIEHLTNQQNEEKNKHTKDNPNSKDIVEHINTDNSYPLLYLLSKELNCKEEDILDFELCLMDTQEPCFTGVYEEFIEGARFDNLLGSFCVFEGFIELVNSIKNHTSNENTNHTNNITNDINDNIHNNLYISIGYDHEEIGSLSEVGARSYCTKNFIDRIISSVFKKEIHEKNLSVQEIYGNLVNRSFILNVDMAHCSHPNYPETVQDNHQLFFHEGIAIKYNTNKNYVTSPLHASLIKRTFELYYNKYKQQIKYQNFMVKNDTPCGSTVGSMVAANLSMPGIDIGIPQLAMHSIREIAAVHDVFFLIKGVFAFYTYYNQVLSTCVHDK
Genome polyprotein, sequence (Q2Q167 whole entry): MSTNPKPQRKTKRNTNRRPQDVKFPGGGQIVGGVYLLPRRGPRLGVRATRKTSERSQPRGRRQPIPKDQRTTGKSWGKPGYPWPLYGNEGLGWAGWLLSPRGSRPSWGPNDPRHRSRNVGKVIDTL

COc1ccc(NC(=O)CN(C)C(=O)c2cc3c(s2)CCC3)cc1
IC50 [1]: 7.31 µM (active) | IC50 (Genome polyprotein): 42.6 µM (not active) | IC50 (Bcl-2-like protein 1): > 109 µM (not active)

COc1ccc2c(c1)Sc1ccccc1N2
IC50 [2]: 2.01 µM (active) | IC50 [3]: 1.63 µM (active) | IC50 (NADPH oxidase 1 [4]): 0.935 µM (active) | IC50 [5]: 28.8 µM (active) | IC50 (NADPH oxidase 1 [6]): > 20 µM (not active)

COc1ccc(NC(=O)CN(C)CC(=O)c2cc(C)n(Cc3ccccc3)c2C)cc1
EC50 [7]: > 30 µM (not active)

CC(=O)c1c(C)[nH]c(C(=O)OCC(=O)Nc2ccc(Cl)cc2[N+](=O)[O-])c1C
AC50 [8]: 53.2 µM (active) | AC50 [9]: 13.6 µM (active) | IC50 (Galanin receptor type 2): > 42 µM (not active) | IC50 [10]: 6.5 µM (active) | AC50 [11]: 0.325 µM (active) | AC50 (INS1): 1.98 µM (active)

O=C(NCc1cccs1)C1CCN(S(=O)(=O)c2ccc(Br)s2)CC1
IC50 (Aminopeptidase N): 4.67 µM (active) | IC50 (Procathepsin L): > 59.6 µM (not active) | EC50 [12]: > 300 µM (not active) | IC50 (Aspartyl aminopeptidase): > 73.5 µM (not active) | EC50 [13]: > 300 µM (not active)

O=C(N/N=C(\c1ccccc1)c1ccccn1)c1cccc([N+](=O)[O-])c1
EC50 [14]: 155 µM (inconclusive) | CC50 [15]: 1.61 µM (active) | CC50 [16]: 0.394 µM (active) | CC50 (Vero): 1.73 µM (active) | EC50 (cells [17]): > 350 µM (not active) | CC50 [18]: 6.88 µM (active) | EC50 (cells [19]): 4.64 µM (active) | EC50 [20]: 3.75 µM (active) | IC50 (cells [21]): 1.06 µM (active) | AC50 (INS1): 0.535 µM (active)
